Measured values: patent US8143307B2, “Benzothiophen-2-carbonylguanidine derivatives, preparation thereof, and pharmaceutical composition containing the same” (Korea Research Institute of Chemical Technology, priority 2004, dated 2012)

What was measured:
Human NHE-1 = target: T1, Human NHE-1 (Homo sapiens, UniProt P19634); test: Inhibitory effect on NHE-1 in PS120/NHE-1 cells (recovery from intracellular acidosis, BCECF fluorescence); format: cell-based; details: human NHE-1 expressed PS120 cells; concentration at which recovery from intracellular acidosis was 50% inhibited
T1 construct: expressed in transfected cells; host or cells: CCL39-derived PS120 cells (PS120/NHE-1)
Description: The benzothiophen-2-carbonylguanidine derivatives of the present invention were examined for NHE-1 inhibitory effect in cells according to the following procedure.
Human NHE-1 was expressed in CCL39-derived PS120 cells. These human NHE-1 expressed cells were cultured in DMEM (Dulbecco's modified Eagle's medium) supplemented with 10% fetal bovine serum, 1% penicillin/streptomycin (100× solution), 1% L-glutamine (200 mM aqueous solution). The PS120/NHE-1 cells grown in 100 mm dishes were treated with trypsin at 80-90% confluency, followed by washing with PBS (phosphate buffer saline) once, and then once with an Na-free buffer (138.2 mM Choline chloride, 4.9 mM KCl, […]. 2H2O, 1.2 mM MgSO4.7H2O, 1.2 mM KH2PO4, 15 mM D-glucose, 20 mM HEPES, at pH 7.4). After centrifugation, the pellet was suspended in an Na-free buffer containing 20 mM NH4Cl and 10 μM BCECF-AM [2′,7′-bis(2-carboxyethyl)-5,6-carboxy-fluorescein acetoxymethyl ester] and incubated at 37° C. for 30 min in a CO2 incubator. After being harvested by centrifugation, the PS120/NHE-1 cells were washed once with an Na-free buffer to remove both NH4Cl and extracellular BCECF-AM, suspended at a density of 2.5×10^4 cells/10 μl and stored at 4° C. in a dark room until reuse. In each well of 96-well microplates, 180 μl of HBS (137 mM NaCl, 4.9 mM KCl, 1.5 mM CaCl2. 2H2O, 1.2 mM MgSO4.7H2O, 1.2 mM KH2PO4, 15 mM D-glucose, 20 mM HEPES, at pH 7.4) and 10 μl of DMSO or 10 μl of a solution of the compound (0.03˜10 μM) of the present invention in DMSO were placed and well mixed, after which 10 μl aliquots of the intracellular acidosis-induced PS120/NHE-1 cells were added thereto. 4 min after the cell addition, fluorescence (excitation: 485/444 nm, emission: 535 nm) was measured in the GEMINI-XS Microplate Spectrofluorometer (Molecular Devices). The fluorescence measured was converted into pH values using a high-K^+/nigericin technique. The cells in which intracellular acidosis was induced with NH4Cl prepulses, were recovered to normal pH values through the operation of NHE-1. The inhibitory effect of the compound against NHE-1 was evaluated as concentrations at which the recovery from the intracellular acidosis to a normal state was 50% inhibited (IC50 values), with cariporide used as a control.

[1] = tested on: isolated ischemic rat heart; test: Cardioprotective effect in isolated ischemic rat heart model (Langendorff); details: 10 μM, 30 min global ischemia, 30 min reperfusion
Description: Male rats (300 450 g, the Korea Research Institute of Chemical Technology, Experimental Animal Lab) were anesthetized by intraperitoneal injection with sodium pentobarbital at a dose of 100 mg/kg and were intravenously administered with heparine at a dose of 1000 U/kg, followed by the excision of the heart. In detail, a tracheotomy was performed and a tracheal cannula (PE 240) was inserted into the trachea for subsequent artificial ventilation with room air using a rodent ventilator. […] A catheter tip manometer connected to a latex balloon filled with a mixture of ethanol and distilled water (1:1 v/v) was inserted via an incision in the left atrium into the left ventricle, and the intraventricular pressure thereof transmitted to the latex balloon was measured isovolumetrically with a transducer and recorded on a recording system (Linearcorder mark 8 WR 3500) with the aid of an amplifier (Plugsys bridge amplifier). After stabilizing the heart for 15 min, the balloon volume was adjusted to create a left ventricular end-diastolic pressure (LVEDP) of 5 mmHg during the initial baseline period. The volume of the balloon was maintained until the end of the experiment. Baseline heart contraction function, spontaneous heart rate (HR) and coronary flow (CF) were determined from the left ventricular contraction interval. The left ventricular developed pressure (LVDP), which is regarded as an index of contractile function of the isolated heart, was calculated by subtracting left ventricular end-diastolic pressure (LVEDP) from left ventricular peak systolic pressure (LVSP). In contrast to the heart in the body, the Langendorff heart cannot be measured for cardiac output and thus, RPP (rate-pressure product), which is an important indirect indicator for cardiac performance, was calculated by multiplying heart rate (HR) by LVDP. Throughout the experiment, the temperature of the heart was maintained constant by […] in a 37° C. physiological solution to which 95% O2/5% CO2 was continuously supplied. The heart thus stabilized was perfursed for 10 min with a solution of the compounds of the invention or control drugs in DMSO (dimethylsulfoxide) diluted with HBS (final DMSO conc. 0.04%), or with the solvent only (a negative control; 0.04% DMSO) and then measured again for contractile function, heart rate (HR) and coronary flow (CF). The supply of perfusates was completely stopped for 30 min in order to induce global ischemia in the heart, followed by reperfusion for 30 min. The indices (LVDP, HR, LVEDP, and CF) were measured again. After the reperfusion, the total level of lactate dehydrogenase (LDH) in the reperfusates was measured using a kit and taken as an index of ischemic myocardial injury. A negative control group was treated with the solvent only while cariporide was used as a positive control.

[2] = tested on: in vivo ischemic rat heart model; test: Cardioprotective effect on in vivo ischemic rat heart model (coronary occlusion/reperfusion, infarct size); details: 0.1 mg/kg intravenous, 45 min occlusion, 90 min reperfusion
Description: The cardioprotective effect of the benzothiophen-2-carbonylguanidine derivatives according to the present invention in in vivo ischemic hearts was judged with regard to their antischemic effects (myocardiac infarction reduction) on rats as follows.
Each male rat (300˜450 g, the Korea Research Institute of Chemical Technology, Experimental Animal Lab) was anesthetized by intraperitoneal injection with sodium pentobarbital at a dose of 75 mg/kg. Tracheotomy was performed and a tube was inserted into the trachea for subsequent artificial ventilation with a stroke volume of 10 ml/kg and a respiratory rate of 60 breaths/min. The femoral vein and the femoral artery were cannulated for the administration of the compounds and for the measurement of blood pressures, respectively. Meanwhile, the body temperature of the rats, an important factor to influence experimental results in the ischemic myocardiac injury model, was maintained constant at 37° C. using a homeothermic blanket control unit, with a body temperature-monitoring probe inserted into the rectum. Subsequently, rats were continuously measured for mean arterial blood pressure and heart rate HR throughout the experimental time period using a Statham P23XL pressure transducer (Grass Ins., Mass., USA) and an ECG/RATE Coupler (Hugo Sachs Electronic, Germany), respectively, with all continuous changes thereof recorded by Graphtec Linearcorder WR 3310 (Hugo Sachs Electronic).
The left coronary artery was occluded according to Selye H.'s method. In detail, after the chest of each rat was partially opened by left thoracotomy, the middle finger of the left hand was pressed against the right side of the chest of the rat to thrust out the heart which was then slightly fixed with the forefinger and the thumb of the same hand. Then, immediately after the left anterior descending coronary artery (LAD) was sutured with a 5-0 silk ligature, the heart was repositioned back in the thoracic cavity with both ends of the suture positioned outside. The ends of the suture were threaded through a PE tube (PE100, 2.5 cm) and allowed to stand for 20 min for stabilization. Through the cannula inserted into the femoral vein, a vehicle or the compounds of the invention were administered and 30 min was needed for sufficient effects of the administered compounds. Cariporide was used as a control. The ends of the suture threaded through the PE tube were pulled taut with hemostatic forceps to vertically press the PE tube against the coronary artery. After occlusion for 45 min, the hemostatic forceps were removed and reperfusion was conducted for 90 min.
The coronary artery was reoccluded in the same manner as described above, followed by the intravenous injection of 2 ml of 1% Evans blue. The intravenous injection of an excess of pentobarbital killed the rats, from which the hearts were then excised. The left ventricle was removed alone from the isolated heart and transected from the cardiac apex into 5 or 6 slices. Each slice was weighed. The image of each of the heart slices was captured using a Hi-scope, a compact vision system, and analyzed for blue-stained normal areas and non-stained areas with an image analyzing program (Image Pro Plus). In each slice, the area at risk (AAR) was calculated by multiplying the ratio of the non-stained area to the total area of the slice with the weight of the slice. Sum of the individual area at risk (AAR) for each slice was divided by the total weight of the left ventricle to obtain AAR (%) according to the following mathmatical formula 1.
Separately, the heat slices were incubated in 1%. 2,3,5-triphenyltetrazolium chloride (TTC) phosphate buffer (pH 7.4), 37° C., for 15 min and fixed in 10% formalin for 20˜24 hours. In the normal area of the tissue, 2,3,5-triphenyltetrazolium chloride was reduced by the myocardial dehydrogenase in the presence of the cofactor NADH to form formazan dye, which appeared as a brick-red color. […]

T1 sequence (P19634 whole entry): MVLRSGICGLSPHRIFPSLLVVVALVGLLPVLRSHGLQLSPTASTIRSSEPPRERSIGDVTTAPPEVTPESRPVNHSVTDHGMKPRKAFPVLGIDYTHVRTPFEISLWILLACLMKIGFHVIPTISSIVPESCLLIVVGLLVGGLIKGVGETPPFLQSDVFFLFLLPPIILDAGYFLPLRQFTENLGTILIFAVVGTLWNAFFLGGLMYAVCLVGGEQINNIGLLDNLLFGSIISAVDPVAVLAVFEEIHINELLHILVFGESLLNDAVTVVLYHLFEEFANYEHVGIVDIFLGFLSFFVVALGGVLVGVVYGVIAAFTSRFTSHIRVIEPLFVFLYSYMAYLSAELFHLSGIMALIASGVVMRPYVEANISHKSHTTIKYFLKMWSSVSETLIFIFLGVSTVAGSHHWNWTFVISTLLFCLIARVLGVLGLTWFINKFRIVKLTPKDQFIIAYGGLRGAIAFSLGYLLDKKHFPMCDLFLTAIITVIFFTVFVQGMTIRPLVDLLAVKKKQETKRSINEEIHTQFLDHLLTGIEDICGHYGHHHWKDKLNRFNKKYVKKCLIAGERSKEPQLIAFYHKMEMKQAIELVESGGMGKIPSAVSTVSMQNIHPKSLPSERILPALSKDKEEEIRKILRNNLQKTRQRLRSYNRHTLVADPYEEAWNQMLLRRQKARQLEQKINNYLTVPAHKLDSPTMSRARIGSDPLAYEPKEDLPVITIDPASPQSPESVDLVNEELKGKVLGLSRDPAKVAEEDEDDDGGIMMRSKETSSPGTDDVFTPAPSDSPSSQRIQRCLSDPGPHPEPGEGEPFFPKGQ

Compound	IC50 (Human NHE-1) [nM]	LDH (free LDH level upon reperfusion) [1] [u/g]	LVEDP (left ventricular end-diastolic pressure) [1] [mmHg]	RPP (rate-pressure product (LVDP × HR) % relative to the value before ischemia induction) [1] [%]	Myocardiac infarction rate (IS/AAR, %) [2] [%]
CS(=O)(=O)O.NC(N)=NC(=O)c1cc2c(-c3ccc(F)c(Cl)c3)cccc2s1 [Example 23, [4-(3-Chloro-4-Fluorophenyl)Benzothiophene-2-Carbonyl]Guanidine Methanesulfonate]	2480	8.8	68.0	5.9	
CS(=O)(=O)O.NC(N)=NC(=O)c1cc2c([N+](=O)[O-])cccc2s1 [Example 39, (4-Nitrobenzothiophene-2-Carbonyl)Guanidine Methanesulfonate]	2340	10.8	11.3	73.3	
CS(=O)(=O)O.Cc1ccc2sc(C(=O)N=C(N)N)cc2c1C [Example 47, (4,5-Dimethylbenzothiophene-2-Carbonyl)Guanidine Methanesulfonate]	750	21.2	25.0	59.3	
CS(=O)(=O)O.NC(N)=NC(=O)c1cc2c(Cl)cccc2s1 [Example 32, (4-Chlorobenzothiophene-2-Carbonyl)Guanidine Methanesulfonate]	200	8.8	25.3	60.8	
CS(=O)(=O)O.NC(N)=NC(=O)c1cc2c(C(F)(F)F)cccc2s1 [Example 43, (4-Trifluoromethylbenzothiophene-2-Carbonyl)Guanidine Methanesulfonate]	400	5.2	5.8	80.6	44.8
CS(=O)(=O)O.Cc1ccc2sc(C(=O)N=C(N)N)cc2c1Br [Example 45, (4-Bromo-5-Methylbenzothiophene-2-Carbonyl)Guanidine Methanesulfonate]	290	22.5	41.8	50.4	
CS(=O)(=O)O.NC(N)=NC(=O)c1cc2c(F)cccc2s1 [Example 33, (4-Fluorobenzothiophene-2-Carbonyl)Guanidine Methanesulfonate]	1730	7.0	37.7	46.6	
N=C(N)NC(=O)c1cc2c(I)cccc2s1 [Example 34, (4-Iodobenzothiophene-2-Carbonyl)Guanidine Methanesulfonate]	< 500	7.1	19.0	65.8	
CS(=O)(=O)O.Cc1cccc2sc(C(=O)N=C(N)N)cc12 [Example 35, (4-Methylbenzothiophene-2-Carbonyl)Guanidine Methanesulfonate]	480		38.0	40.4	
CS(=O)(=O)O.NC(N)=NC(=O)c1cc2c(Br)cccc2s1 [Example 1, (4-Bromobenzothiophene-2-Carbonyl)Guanidine Methanesulfonate]	200		34.0	54.7	
C=Cc1cccc2sc(C(=O)N=C(N)N)cc12.CS(=O)(=O)O [Example 36, (4-Vinylbenzothiophene-2-Carbonyl)Guanidine Methanesulfonate]	310	13.1	42.0	51.0	
CS(=O)(=O)O.NC(N)=NC(=O)c1cc2c(-c3cc(Cl)cc(Cl)c3)cccc2s1 [Example 19, [4-(3,5-Dichlorophenyl)Benzothiophene-2-Carbonyl]Guanidine Methanesulfonate]	680		64.4	19.1	
